The results in this text go back to patent US20210155905A1, “Method for Obtaining Haploid Cells” (Centre National de la Recherche Scientifique (CNRS), priority 2017, published 2021).

In series [1] the test system is 3T3 cells. In words: FACS DNA content: appearance of the 1C (sub-G1) cell population 20 hours after release from G0. The format is cell-based, mouse. Conditions: ΔDboxGeminin-expressing cells, 9 μM RO-3306 upon G0/G1 release. As for the experimental part:
(§1) FIG. 31 represents FACS profiles showing the DNA content (propidium iodide staining) of 3T3 cells 20 hours after release from G0 in the presence (+ΔDboxGem) or not (−ΔDboxGem) of doxycycline alone (CTRL—first column) or combined with RO-3306 treatment (a CDK1 inhibitor that prevents mitotic entry second column) or after UV treatment (performed upon release to induce DNA damage; third column).
For PI, BrdU/PI and ^ser10PH3/PI experiments, cells were fixed in cold 70% Ethanol/PBS and then processed for indirect immunofluorescence, as described above. To detect cyclin B1/PI, MPM2/PI and FLAG/PI, cells were fixed in 3% PFA in PBS at RT for 15 min, permeabilized in 0.5% Triton X-100 for 5 min and processed for indirect immunofluorescence. For DNA staining, cells were treated with 50 μg·mL^−1 RNase A (Sigma, R6513) and stained with 25 μg·mL^−1 propidium iodide.
(§2) To express CDT1, 3T3 cells were transfected with 5 μg of plasmid pCDNA3-CDT1 or empty vector using Nucleofector TN II; Amaxa Biosystem; AAD-1001N. To induce DNA damage, synchronized cells were exposed to UV (0.002 joules) using the Bioblock Scientific BLX-254 upon release or incubated with 2 mM hydroxyurea for 20 hours. To block mitotic progression, 9 μM RO-3306 was added in the medium upon G0/G1 release.

The test system of series [2] is 3T3 cells. Briefly: Western blotting of cleaved caspase 3 (apoptosis). The format is cell-based, mouse. Conditions: synchronized cells, hydroxyurea for 20 hours. The protocol: as §1
FIG. 32 is a control western blot used as control of the experiment of FIG. 31. […] A: next G1, B: HU and C: U.V. C3*: cleaved caspase 3 and H3: histone H3.
as §2
To prepare total cell extracts, cells were harvested, washed twice with PBS, lysed in 2× Laemmli buffer, sonicated (3×30 seconds) and boiled for 5 min. To obtain chromatin-enriched fractions, a protocol adapted from Lutzmann et al. [Lutzmann et al. 2012 Molecular Cell, 47, 523-534] was used. […]
On the technique in general: A western blot detects proteins with antibodies after separation by electrophoresis.

Entries after “also recorded” stand apart in the source; their conditions may differ.

As for `O=C1NC(=NCc2cccs2)S/C1=C\c1ccc2ncccc2c1` [RO-3306], the “appearance of the 1C DNA content cell population” value in series [1] was “prevented mitotic entry and the appearance of the 10 DNA cell population; also recorded: totally prevented their appearance”.

As to `NC(=O)NO` [hydroxyurea], the “apoptosis (cleaved caspase 3)” value in series [2] is given as “did not induce detectable apoptosis”.
